# Measurements as given in patent US10676465B2, “GLP-1 receptor agonists and uses thereof” (Pfizer Inc., priority 2018, dated 2020).
# Columns and labels:
# [1] = molecular target: human GLP-1R (Homo sapiens (Human), UniProt P43220, L260F); experiment: CHO GLP-1R Clone C6 - Assay 2 (HTRF cAMP agonist assay, low receptor density); conditions: for EC50: read-out: Assay 2 EC50, cAMP HTRF, geometric mean; for Emax: read-out: Assay 2 Emax (%), CHO GLP-1R Clone C6 (low receptor density)
# Procedure: CHO GLP-1R Clone C6—Assay 2
# GLP-1R-mediated agonist activity was determined with a cell-based functional assay utilizing an HTRF (Homogeneous Time-Resolved Fluorescence) cAMP detection kit (cAMP HI Range Assay Kit; Cis Bio cat #62AM6PEJ) that measures cAMP levels in the cell. The method is a competitive immunoassay between native cAMP produced by the cells and exogenous cAMP labeled with the dye d2. The tracer binding is visualized by a mAb anti-cAMP labeled with Cryptate. The specific signal (i.e. energy transfer) is inversely proportional to the concentration of cAMP in either a standard or an experimental sample.
# The human GLP-1R coding sequence (NCBI Reference Sequence NP_002053.3, including naturally-occurring variant Leu260Phe) was subcloned into pcDNA5-FRT-TO and a clonal CHO cell line stably expressing a low receptor density was isolated using the Flp-In™ T-Rex™ System, as described by the manufacturer (ThermoFisher).
# Cells were removed from cryopreservation, re-suspended in 40 mL of Dulbecco's Phosphate Buffered Saline (DPBS—Lonza Cat #17-512Q) and centrifuged at 800×g for 5 minutes at 22° C. The DPBS was aspirated, and the cell pellet was re-suspended in 10 mL of complete growth medium (DMEM:F12 1:1 Mixture with HEPES, L-Gln, 500 mL (DMEM/F12 Lonza Cat #12-719F), 10% heat inactivated fetal bovine serum (Gibco Cat #16140-071), 5 mL of 100× Pen-Strep (Gibco Cat #15140-122), 5 mL of 100×L-Glutamine (Gibco Cat #25030-081), 700 μg/mL Hygromycin (Invitrogen Cat #10687010) and 15 μg/mL Blasticidin (Gibco Cat # R21001). A 1 mL sample of the cell suspension in growth media was counted on a Becton Dickinson ViCell to determine cell viability and cell count per mL. The remaining cell suspension was then adjusted with growth media to deliver 1600 viable cells per well using a Matrix Combi Multidrop reagent dispenser, and the cells were dispensed into a white 384 well tissue culture treated assay plate (Corning 3570). The assay plate was then incubated for 48 hours at 37° C. in a humidified environment (95% O2, 5% CO2)
# Varying concentrations of each compound to be tested (in DMSO) were diluted in assay buffer [HBSS with Calcium/Magnesium (Lonza/BioWhittaker cat #10-527F)/0.1% BSA (Sigma Aldrich cat # A7409-1L)/20 mM HEPES (Lonza/BioWhittaker cat #17-737E)] containing 100 μM 3-isobutyl-1-methylxanthin (IBMX; Sigma cat #15879). The final DMSO concentration in the compound/assay buffer mixture is 1%.
# After 48 hours, the growth media was removed from the assay plate wells, and the cells were treated with 20 μL of the serially diluted compound in assay buffer for 30 minutes at 37° C. in a humidified environment (95% O2, 5% CO2). Following the 30 minute incubation, 10 μL of labeled d2 cAMP and 10 μL of anti-cAMP antibody (both diluted 1:20 in cell lysis buffer; as described in the manufacturer's assay protocol) were added to each well of the assay plate. The plates were then incubated at room temperature and after 60 minutes, changes in the HTRF signal were read with an Envision 2104 multi-label plate reader using excitation of 330 nm and emissions of 615 and 665 nm. Raw data were converted to nM cAMP by interpolation from a cAMP standard curve (as described in the manufacturer's assay protocol) and the percent effect was determined relative to a saturating concentration of the full agonist GLP-1 (1 μM) included on each plate. EC50 determinations were made from agonist dose response curves analyzed with a curve fitting program using a 4-parameter logistic dose response equation.
# [2] = molecular target: human GLP-1R (Homo sapiens, UniProt P43220, G168S); experiment: CHO GLP-1R Clone H6 - Assay 1 (HTRF cAMP agonist assay); assay type: cell-based; conditions: for EC50: CHO GLP-1R Clone H6, cAMP HTRF, geometric mean; for Emax / Assay 1 Emax (%): CHO GLP-1R Clone H6, arithmetic mean, relative to saturating GLP-1 (1 μM)
# Sequence of human GLP-1R (Homo sapiens, UniProt P43220, G168S) (P43220 24-463 G168S limits assumed): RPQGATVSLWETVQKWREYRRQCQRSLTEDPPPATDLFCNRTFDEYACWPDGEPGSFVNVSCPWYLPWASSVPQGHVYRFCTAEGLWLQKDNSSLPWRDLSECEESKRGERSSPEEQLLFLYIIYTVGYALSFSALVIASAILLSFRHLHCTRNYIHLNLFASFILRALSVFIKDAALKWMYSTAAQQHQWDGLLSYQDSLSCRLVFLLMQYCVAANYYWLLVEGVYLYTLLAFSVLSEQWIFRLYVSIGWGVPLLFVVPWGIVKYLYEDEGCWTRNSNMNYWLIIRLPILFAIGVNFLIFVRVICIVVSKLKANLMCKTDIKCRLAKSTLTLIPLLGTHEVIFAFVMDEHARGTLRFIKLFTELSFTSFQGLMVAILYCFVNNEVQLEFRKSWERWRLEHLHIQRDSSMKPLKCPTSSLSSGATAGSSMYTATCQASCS
# Procedure: GLP-1R-mediated agonist activity was determined with a cell-based functional assay utilizing an HTRF (Homogeneous Time-Resolved Fluorescence) cAMP detection kit (cAMP HI Range Assay Kit; CisBio cat #62AM6PEJ) that measures cAMP levels in the cell. The method is a competitive immunoassay between native cAMP produced by the cells and exogenous cAMP labeled with the dye d2. The tracer binding is visualized by a mAb anti-cAMP labeled with Cryptate. The specific signal (i.e. energy transfer) is inversely proportional to the concentration of cAMP in either standard or experimental sample.
# The human GLP-1R coding sequence (NCBI Reference Sequence NP_002053.3, including naturally-occurring variant Gly168Ser) was subcloned into pcDNA3 (Invitrogen) and a cell line stably expressing the receptor was isolated (designated Clone H6).
# Cells were removed from cryopreservation, re-suspended in 40 mL of Dulbecco's Phosphate Buffered Saline (DPBS—Lonza Cat #17-512Q) and centrifuged at 800×g for 5 minutes at 22° C. The cell pellet was then re-suspended in 10 mL of growth medium [DMEM/F12 1:1 Mixture with HEPES, L-Gln, 500 mL (DMEM/F12 Lonza Cat #12-719F), 10% heat inactivated fetal bovine serum (Gibco Cat #16140-071), 5 mL of 100× Pen-Strep (Gibco Cat #15140-122), 5 mL of 100×L-Glutamine (Gibco Cat #25030-081) and 500 μg/mL Geneticin (G418) (Invitrogen #10131035)]. A 1 mL sample of the cell suspension in growth media was counted on a Becton Dickinson ViCell to determine cell viability and cell count per mL. The remaining cell suspension was then adjusted with growth media to deliver 2000 viable cells per well using a Matrix Combi Multidrop reagent dispenser, and the cells were dispensed into a white 384 well tissue culture treated assay plate (Corning 3570). The assay plate was then incubated for 48 hours at 37° C. in a humidified environment in 5% carbon dioxide.
# Varying concentrations of each compound to be tested (in DMSO) were diluted in assay buffer (HBSS with Calcium/Magnesium (Lonza/BioWhittaker cat #10-527F)/0.1% BSA (Sigma Aldrich cat # A7409-1L)/20 mM HEPES (Lonza/BioWhittaker cat #17-737E) containing 100 μM 3-isobutyl-1-methylxanthin (IBMX; Sigma cat #15879). The final DMSO concentration is 1%.
# After 48 hours, the growth media was removed from the assay plate wells, and the cells were treated with 20 μL of the serially diluted compound in assay buffer for 30 minutes at 37° C. in a humidified environment in 5% carbon dioxide. Following the 30 minute incubation, 10 μL of labeled d2 cAMP and 10 μL of anti-cAMP antibody (both diluted 1:20 in cell lysis buffer; as described in the manufacturer's assay protocol) were added to each well of the assay plate. The plates were then incubated at room temperature and after 60 minutes, changes in the HTRF signal were read with an Envision 2104 multi-label plate reader using excitation of 330 nm and emissions of 615 and 665 nm. Raw data were converted to nM cAMP by interpolation from a cAMP standard curve (as described in the manufacturer's assay protocol) and the percent effect was determined relative to a saturating concentration of the full agonist GLP-17-36 (1 μM) included on each plate. EC50 determinations were made from agonist dose-response curves analyzed with a curve fitting program using a 4-parameter logistic dose response equation.
# [3] = CHO GLP-1R Clone C6 (low receptor density)
# [4] = arithmetic mean, relative to saturating GLP-1 (1 μM)
# Sequence of human GLP-1R (Homo sapiens (Human), UniProt P43220, L260F) (P43220 24-463 L260F): as the sequence (P43220 24-463 G168S limits assumed) above, with S145G, L237F counted along it
"EC50 [1, 3]","Emax [1, 4]",EC50 [2],Emax [2],Assay 1 Emax (%) [2],"Assay 2 Emax (%) ([1]; CHO GLP-1R Clone C6 (low receptor density), arithmetic mean, relative to saturating GLP-1 (1 μM))",SMILES
1000 nM,71%,65 nM,82%,–,–,"CC1(c2ccc(Cl)cc2F)Oc2cccc(C3CCN(Cc4nc5ccc(C(=O)O)cc5n4CCO)CC3)c2O1 (stereo not shown) [Example 75, 2-({4-[2-(4-chloro-2-fluorophenyl)-2-methyl-1,3-benzodioxol-4-yl]piperidin-1-yl}methyl)-1-(2-hydroxyethyl)-1H-benzimidazole-6-carboxylic acid]"
7.6 nM,100%,0.77 nM,93%,–,–,"CCn1nncc1Cn1c(CN2CCC(c3cccc4c3OC(C)(c3ccc(Cl)cc3F)O4)CC2)nc2ccc(C(=O)O)cc21 (stereo not shown) [Example 76, 2-({4-[2-(4-chloro-2-fluorophenyl)-2-methyl-1,3-benzodioxol-4-yl]piperidin-1-yl}methyl)-1-[(1-ethyl-1H-1,2,3-triazol-5-yl)methyl]-1H-benzimidazole-6-carboxylic acid]"
1700 nM,92%,53 nM,89%,–,–,"Cn1cnc(Cn2c(CN3CCC(c4cccc5c4OC(C)(c4ccc(Cl)cc4F)O5)CC3)nc3ccc(C(=O)O)cc32)c1 (stereo not shown) [Example 77, 2-({4-[2-(4-chloro-2-fluorophenyl)-2-methyl-1,3-benzodioxol-4-yl]piperidin-1-yl}methyl)-1-[(1-methyl-1H-imidazol-4-yl)methyl]-1H-benzimidazole-6-carboxylic acid]"
78 nM,100%,4.5 nM,89%,–,–,"Cn1cnnc1Cn1c(CN2CCC(c3cccc4c3OC(C)(c3ccc(Cl)cc3F)O4)CC2)nc2ccc(C(=O)O)cc21 (stereo not shown) [Example 78, 2-({4-[2-(4-chloro-2-fluorophenyl)-2-methyl-1,3-benzodioxol-4-yl]piperidin-1-yl}methyl)-1-[(4-methyl-4H-1,2,4-triazol-3-yl)methyl]-1H-benzimidazole-6-carboxylic acid]"
21 nM,85%,1.4 nM,85%,–,–,"CC1(c2ccc(Cl)cc2F)Oc2cccc(C3CCN(Cc4nc5ccc(C(=O)O)cc5n4C[C@@H]4CCCO4)CC3)c2O1 (stereo partly drawn) [Example 79, 2-({4-[2-(4-chloro-2-fluorophenyl)-2-methyl-1,3-benzodioxol-4-yl]piperidin-1-yl}methyl)-1-[(2S)-tetrahydrofuran-2-ylmethyl]-1H-benzimidazole-6-carboxylic acid]"
6.9 nM,96%,1.1 nM,87%,–,–,"CC1(c2ccc(Cl)cc2F)Oc2cccc(C3CCN(Cc4nc5ccc(C(=O)O)cc5n4Cc4ncco4)CC3)c2O1 (stereo not shown) [Example 80, 2-({4-[2-(4-chloro-2-fluorophenyl)-2-methyl-1,3-benzodioxol-4-yl]piperidin-1-yl}methyl)-1-(1,3-oxazol-2-ylmethyl)-1H-benzimidazole-6-carboxylic acid]"
54 nM,110%,29 nM,110%,–,–,"CC1(c2ccc(Cl)cc2F)Oc2cccc(C3CCN(Cc4nc5ccc(C(=O)O)nc5n4Cc4cnco4)CC3)c2O1 (stereo not shown) [Example 81, 2-({4-[2-(4-chloro-2-fluorophenyl)-2-methyl-1,3-benzodioxol-4-yl]piperidin-1-yl}methyl)-3-(1,3-oxazol-5-ylmethyl)-3H-imidazo[4,5-b]pyridine-5-carboxylic acid]"
1000 nM,83%,47 nM,83%,–,–,"COCCn1c(CN2CCC(c3cccc4c3OC(C)(c3ccccc3)O4)CC2)nc2ccc(C(=O)O)cc21 (stereo not shown) [Example 82, 1-(2-methoxyethyl)-2-{[4-(2-methyl-2-phenyl-1,3-benzodioxol-4-yl)piperidin-1-yl]methyl}-1H-benzimidazole-6-carboxylic acid]"
44 nM,88%,3.4 nM,85%,–,–,"COCCn1c(CN2CCC(c3cccc4c3OC(C)(c3ccc(OC)cc3Cl)O4)CC2)nc2ccc(C(=O)O)cc21 (stereo not shown) [Example 83, 2-({4-[2-(2-chloro-4-methoxyphenyl)-2-methyl-1,3-benzodioxol-4-yl]piperidin-1-yl}methyl)-1-(2-methoxyethyl)-1H-benzimidazole-6-carboxylic acid]"
100 nM,86%,9.1 nM,93%,–,–,"COCCn1c(CN2CCC(c3cccc4c3OC(C)(c3ccc(C)cc3)O4)CC2)nc2ccc(C(=O)O)cc21 (stereo not shown) [Example 84, 1-(2-methoxyethyl)-2-({4-[2-methyl-2-(4-methylphenyl)-1,3-benzodioxol-4-yl]piperidin-1-yl}methyl)-1H-benzimidazole-6-carboxylic acid]"
410 nM,100%,24 nM,91%,–,–,"COCCn1c(CN2CCC(c3cccc4c3OC(C)(c3ccccc3Cl)O4)CC2)nc2ccc(C(=O)O)cc21 (stereo not shown) [Example 86, 2-({4-[2-(2-chlorophenyl)-2-methyl-1,3-benzodioxol-4-yl]piperidin-1-yl}methyl)-1-(2-methoxyethyl)-1H-benzimidazole-6-carboxylic acid]"
360 nM,91%,17 nM,86%,–,–,"COCCn1c(CN2CCC(c3cccc4c3OC(C)(c3ccccc3C)O4)CC2)nc2ccc(C(=O)O)cc21 (stereo not shown) [Example 88, 1-(2-methoxyethyl)-2-({4-[2-methyl-2-(2-methylphenyl)-1,3-benzodioxol-4-yl]piperidin-1-yl}methyl)-1H-benzimidazole-6-carboxylic acid]"
2900 nM,87%,130 nM,85%,–,–,"COCCn1c(CN2CCC(c3cccc4c3OC(C)(c3ccccn3)O4)CC2)nc2ccc(C(=O)O)cc21 (stereo not shown) [Example 89, 1-(2-methoxyethyl)-2-({4-[2-methyl-2-(pyridin-2-yl)-1,3-benzodioxol-4-yl]piperidin-1-yl}methyl)-1H-benzimidazole-6-carboxylic acid]"
> 20000 nM,–,14000 nM,100%,–,–,"COCCn1c(CN2CCC(c3cccc4c3OC(C)(c3ccc(Cl)cn3)O4)CC2)nc2ccc(C(=O)O)cc21 (stereo not shown) [Example 91, ammonium 2-({4-[2-(5-chloropyridin-2-yl)-2-methyl-1,3-benzodioxol-4-yl]piperidin-1-yl}methyl)-1-(2-methoxyethyl)-1H-benzimidazole-6-carboxylate]"
72 nM,83%,4.2 nM,–,90%,–,"COCCn1c(CN2CCC(c3cccc4c3OC(C)(c3ccc(Cl)cn3)O4)CC2)nc2ccc(C(=O)O)cc21.N (stereo not shown) [Example 92, ammonium 2-({4-[2-(5-chloropyridin-2-yl)-2-methyl-1,3-benzodioxol-4-yl]piperidin-1-yl}methyl)-1-(2-methoxyethyl)-1H-benzimidazole-6-carboxylate]"
> 20000 nM,–,> 6500 nM,84%,–,–,"COCCn1c(CN2CCC(c3cccc4c3OC(C)(c3ccc(C#N)cn3)O4)CC2)nc2ccc(C(=O)O)cc21 (stereo not shown) [Example 93, ammonium 2-({4-[2-(5-cyanopyridin-2-yl)-2-methyl-1,3-benzodioxol-4-yl]piperidin-1-yl}methyl)-1-(2-methoxyethyl)-1H-benzimidazole-6-carboxylate]"
360 nM,87%,12 nM,–,–,–,"COCCn1c(CN2CCC(c3cccc4c3OC(C)(c3ccc(C#N)cn3)O4)CC2)nc2ccc(C(=O)O)cc21 (stereo not shown) [Example 94, ammonium 2-({4-[2-(5-cyanopyridin-2-yl)-2-methyl-1,3-benzodioxol-4-yl]piperidin-1-yl}methyl)-1-(2-methoxyethyl)-1H-benzimidazole-6-carboxylate]"
440 nM,95%,50 nM,97%,–,–,"CC1(c2ccc(C#N)cc2F)Oc2cccc(C3CCN(Cc4nc5ccc(C(=O)O)cc5n4Cc4ncco4)CC3)c2O1 (stereo not shown) [Example 98, ammonium 2-({4-[2-(4-cyano-2-fluorophenyl)-2-methyl-1,3-benzodioxol-4-yl]piperidin-1-yl}methyl)-1-(1,3-oxazol-2-ylmethyl)-1H-benzimidazole-6-carboxylate]"
5.4 nM,–,2.8 nM,–,99%,91%,"CC1(c2ccc(C#N)cc2F)Oc2cccc(C3CCN(Cc4nc5ccc(C(=O)O)cc5n4Cc4ncco4)CC3)c2O1.N (stereo not shown) [Example 99, ammonium 2-({4-[2-(4-cyano-2-fluorophenyl)-2-methyl-1,3-benzodioxol-4-yl]piperidin-1-yl}methyl)-1-(1,3-oxazol-2-ylmethyl)-1H-benzimidazole-6-carboxylate]"
